Laboratory results published in patent US7507766B2, “Treatment of cancers” (Pharma Mar, S.A., priority 2000, dated 2009).
“Also recorded” adds a separate entry of the source. Starred links: 1 amine or outer side, 2 acyl side, 3 side chain; linkers in the order of their positions; H or OH if unused. Positions of bridges follow the written chain, without caps; N, C: chain ends. Non-standard residues stand in square brackets, D forms with d. Residues, ends and D or L forms follow the SMILES beside them. *: point of attachment. X1 = CC[C@H](C)[C@@H](N[*:1])[C@@H](O)CC(=O)O[C@H](C(=O)[C@H](C)C(=O)[*:2])C(C)C; NMeY = CN[C@@H](Cc1ccc(O)cc1)C(=O)O; dNMeL = CN[C@H](CC(C)C)C(=O)O; Pyruvoyl = CC(=O)C(=O)*

Legend:
[1] = Phase I studies: aplidine myotoxicity and L-carnitine as myoprotector; assay type: in vivo, human
Protocol: More generally, the invention involves the use of a muscle protector in conjunction with aplidine therapy. We have found in particular that carnitine is beneficial in treating myotoxicity that is associated with chemotherapy with the experimental drug aplidine. […] When L-carnitine 4.5 g/day was added to the therapy (at doses of 1.5 g three times daily), or 0.1 mg/kg (at doses of 0.033 mg 3 times daily) patients were able to tolerate doses of aplidine up to 6000 mcg/m 2 every second week. […] Therefore, muscle protectors such as L-carnitine is a useful myoprotector for patients being treated with aplidine or an aplidine analogue.
L-carnitine at a dose of 1.5 grams 3 times per day or 0.033 g/kg 3 times per day was started in all patients of study APL-A-003-98.

[2] = test system: panel of 25 human tumor cell lines; test: tumor protection by L-carnitine in panel of tumor cell lines; assay type: cell-based; settings: initial results
Protocol: The possibility of tumor protection by L-carnitine was evaluated using a panel of 25 human tumor cell lines.

[3] = test system: gene (FLT1) encoding the receptor of the Vascular Endothelial Growth Factor (VEGF); test: expression of the gene FLT1; assay type: cell-based
VEGF protein = test: production of VEGF protein by tumour cells; assay type: cell-based
human bladder cancer = human bladder cancer animal models; assay type: in vivo; settings: complete remissions in some animal models
[4] = stability of aplidine solution and lyophilised dosage form; settings: heat and light stress testing
Protocol: In a currently preferred embodiment freeze-drying was performed from a […] solution of aplidine in 40% (v/v) tert-butanol in Water for Injection (Wfl) containing 25 mg/mL D-mannitol as bulking agent.

[5] = Phase I clinical studies: MTD, DLT and RD per dosing regime; assay type: in vivo, human
Description: The Recommended Dose (RD) is the highest dose which can be safely administered to a patient producing tolerable, manageable and reversibly toxicity according to the Common Toxicity Criteria established by the National Cancer Institute, (USA) with no more than […] patients presenting any dose limiting toxicities (DLT). Guidelines for cancer therapy frequently call for administration of chemotherapeutic agents at the highest safe dose at which toxicity is manageable in order to achieve maximum efficacy (DeVita, V. T. Jr., Hellman, S. and Rosenberg, S. A., Cancer: Principles and Practice of Oncology, 3rd ed., 1989, Lipincott, Philadelphia).
DLTs for aplidine using this method of treatment were determined in clinical studies. These studies established a recommended dose level for differing kinds of dosing protocols.

[6] = Phase I study, 24 h continuous infusion every other week: toxicities; assay type: in vivo, human
Protocol: (§1) Definitions for patient toxicities are adopted from WHO Criteria and the responses determined following WHO Response Criteria.
(§2) A phase I and pharmacokinetic study of aplidine, given as a 24 h continuous infusion every other week in patients with solid tumours and non-Hodgkin lymphoma

[7] = Phase I study, 24 h continuous infusion every other week: pharmacokinetics; assay type: in vivo, human
Protocol: as §2

[8] = test system: solid tumours and non-Hodgkin lymphoma; test: clinical trials: antitumour responses in patients; assay type: in vivo, human
Protocol: as §1, §2

[9] = test system: human colon cancer cell line, HT-29; settings: cited from earlier work
ornithine decarboxylase = target: T1, ornithine decarboxylase (Homo sapiens, UniProt P11926); settings: all three cell lines; cited from earlier work
T1 construct: endogenous in cells; host or cells: CT-1, CT-2 and HT-29 colon carcinoma cell lines
T1 sequence (P11926 1-461): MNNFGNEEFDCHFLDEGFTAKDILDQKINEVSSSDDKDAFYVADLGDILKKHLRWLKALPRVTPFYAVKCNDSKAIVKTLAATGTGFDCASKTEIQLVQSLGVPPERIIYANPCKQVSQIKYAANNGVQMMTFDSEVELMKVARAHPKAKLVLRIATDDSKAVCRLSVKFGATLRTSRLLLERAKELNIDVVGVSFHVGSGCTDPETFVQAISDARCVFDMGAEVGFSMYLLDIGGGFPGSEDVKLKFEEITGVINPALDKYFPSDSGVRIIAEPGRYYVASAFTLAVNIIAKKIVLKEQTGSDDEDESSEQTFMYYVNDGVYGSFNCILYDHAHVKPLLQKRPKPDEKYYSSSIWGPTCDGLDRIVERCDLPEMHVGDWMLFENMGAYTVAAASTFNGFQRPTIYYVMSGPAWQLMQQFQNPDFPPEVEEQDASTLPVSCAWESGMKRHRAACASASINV

MDA-MB231 = settings: aplidine; cited from earlier work
MCF-7 = settings: aplidine 50 mmol/L; cited from earlier work
spermidine and spermine = settings: cited from earlier work
cell cycle = settings: cited from earlier work
P388 leukaemia = settings: mice; cited from earlier work
B16 melanoma = settings: mice; cited from earlier work
lewis lung carcinomas = settings: mouse, in vivo; cited from earlier work
[10] = test system: Non-small cell lung cancer, breast cancer and melanoma cell lines; settings: cited from earlier work
CT-1 = settings: cited from earlier work
CT-2 = settings: cited from earlier work
human cancer xenografts = settings: cited from earlier work
[11] = dose level 200 mcg/m^2/2 wks, of 3 patients
[12] = dose level 400 mcg/m^2/2 wks, of 3 patients
[13] = dose level 800 mcg/m^2/2 wks, of 3 patients
[14] = dose level 1600 mcg/m^2/2 wks, of 6 patients
[15] = dose level 3200 mcg/m^2/2 wks, of 3 patients
[16] = dose level 4000 mcg/m^2/2 wks, of 3 patients
[17] = dose level 5000 mcg/m^2/2 wks, of 3 patients
[18] = dose level 6000 mcg/m^2/2 wks, of 12 patients
[19] = dose level 7000 mcg/m^2/2 wks, of 7 patients

SMILES: C[N+](C)(C)C[C@H](O)CC(=O)[O-] [L-carnitine, reference compound]
- increase of aplidine RD by L-carnitine prophylaxis ([1]; human, in vivo): 40%
- only toxicity reported for L-carnitine ([1]; human, in vivo): grade 1 abdominal discomfort and diarrhea
- L-carnitine dose below which it should not be decreased ([1]; in vivo): ≥ 3.5 grams per day
- duration of beneficial effect (normal creatine kinase values) ([1]; in vivo): at least 13 weeks
- outcome in 11 patients receiving L-carnitine prophylaxis from the beginning ([1]; in vivo): just an asymptomatic G1 increase in CK
- tolerability of L-carnitine ([1]; in vivo): well tolerated
- effect of L-carnitine on the antitumor activity of aplidine [2]: lack of effect

SMILES: CC[C@H](C)[C@H]1NC(=O)[C@@H](NC(=O)[C@@H](CC(C)C)N(C)C(=O)[C@@H]2CCCN2C(=O)C(C)=O)[C@@H](C)OC(=O)[C@H](Cc2ccc(OC)cc2)N(C)C(=O)[C@@H]2CCCN2C(=O)[C@H](CC(C)C)NC(=O)[C@@H](C)C(=O)[C@H](C(C)C)OC(=O)C[C@@H]1O [aplidine] (Pyruvoyl-P[dNMeL]T[X1]LP[NMeY](Me); ester 3-C)
- expression of FLT1 gene [3]: inhibits expression
- production of VEGF protein by tumour cells (VEGF protein): severely inhibit production
- activity on human bladder cancer (human bladder cancer): exceedingly high activity
- degradation in solution [4]: substantial degradation
- dose-limiting toxicity ([5]; 1-hour infusion for 5 consecutive days every 3 weeks): Muscular/long; also recorded: lasting emesis
- dose-limiting factor ([5]; 4 Phase I trials): skeletal muscle toxicity
- dose-limiting toxicity ([5]; 24 hour infusion every 2 weeks, L-carnitine daily): Flu-like
- dose-limiting toxicity ([5]; weekly 24 hour infusion for 3 weeks, 1 week rest): Muscular/; also recorded: hepatic
- RD of aplidine ([5]; with L-carnitine 0.1 g/kg/day in 3 portions, for Phase II studies): 7 mg/m^2
- muscle biopsies, E/M finding ([6]; 2 patients): partial disappearance of thick filaments of myosin
- dose limiting toxicity (muscular changes), patients ([6]; 6000 mcg/m^2): 1/9
- time to recovery of toxicity after treatment discontinuation ([6]; Pat #27): ≤ 3 weeks
- Nausea/vomiting G2, no. patients [6, 11]: 2
- Transaminitis G2, no. patients [6, 11]: 1
- Asthenia G2, no. patients [6, 12]: 2
- Hypertension G2, no. patients [6, 12]: 1
- Nausea/vomiting G2, no. patients [6, 12]: 1
- Flushing G1, no. patients [6, 13]: 1
- Muscle cramps G1 + G2, no. patients [6, 13]: 2
- Asthenia G2, no. patients [6, 14]: 2
- Asthenia G3, no. patients [6, 14]: 1
- Muscle cramps G1 + G2, no. patients [6, 14]: 1
- Nausea/vomiting G2, no. patients [6, 14]: 4
- Transaminitis G3, no. patients [6, 14]: (1)
- Asthenia G2, no. patients [6, 15]: 1
- Flushing G1, no. patients [6, 15]: 1
- Muscle cramps G1 + G2, no. patients [6, 15]: 2
- Muscle pain G2, no. patients [6, 15]: (1)
- Nausea/vomiting G3, no. patients [6, 15]: (1)
- Asthenia G2, no. patients [6, 16]: 1
- Flushing G1, no. patients [6, 16]: 1
- Muscle cramps G1 + G2, no. patients [6, 16]: 2
- Muscle pain G1, no. patients [6, 16]: 2
- Nausea/vomiting G2, no. patients [6, 16]: 2
- Pain central catheter G2, no. patients [6, 16]: 2
- Asthenia G3, no. patients [6, 17]: (1)
- CPK elevation G3, no. patients [6, 17]: (1) [1]
- CPK elevation G4, no. patients [6, 17]: (1) [1]
- Muscle cramps G1 + G2, no. patients [6, 17]: 2
- Muscle pain G1, no. patients [6, 17]: 1
- Muscle weakness G1, no. patients [6, 17]: 1
- Nausea/vomiting G2, no. patients [6, 17]: 1
- Transaminitis G2, no. patients [6, 17]: 1
- Asthenia G2, no. patients [6, 18]: 6
- CPK elevation G2, no. patients [6, 18]: 1(1)
- CPK elevation G3, no. patients [6, 18]: 1(1)
- Muscle cramps G1 + G2, no. patients [6, 18]: 1
- Muscle pain G1, no. patients [6, 18]: 1
- Muscle pain G2, no. patients [6, 18]: 2
- Muscle weakness G1, no. patients [6, 18]: 1(1)
- Muscle weakness G2, no. patients [6, 18]: 1(1)
- Nausea/vomiting G2, no. patients [6, 18]: 2
- Asthenia G2, no. patients [6, 19]: 2
- CPK elevation G2, no. patients [6, 19]: 1
- Flushing G1, no. patients [6, 19]: 1
- Muscle pain G1, no. patients [6, 19]: 1
- Nausea/vomiting G2, no. patients [6, 19]: 1
- Neutrophenia G4, no. patients [6, 19]: 1
- Transaminitis G2, no. patients [6, 19]: 1
- t ½ in the 3 patients with clear muscular toxicity ([7]; 24 h infusion): > 44 h
- coefficient of variation of CL (interpatient) ([7]; human, in vivo): 62%
- PK profile ([7]; low sample size): dose-linear
- terminal phase median half-life ([7]; preliminary compartmental analysis, 24 h infusion): 25.8 h
- initial phase median half-life ([7]; preliminary compartmental analysis, first-order 2-compartment model): 0.64 h
- t ½, median ([7]; quartiles 15.7-35.0): 23.8 h
- plasma CL, median ([7]; quartiles 192-415): 252 mL/min/m^2
- Vss, median ([7]; quartiles 274-638): 413 L/m^2
- responses in cancer patients ([8]; clinical trials): Responses in cancer patients have been observed
- antitumour activity in patients ([8]; patients with NHL and renal carcinoma): Antitumour activity has been also noted
- toxicity in some subjects without L-carnitine ([1]; 24-hour infusion, 4500 mcg/m^2 every week, then 6000 mcg/m^2 every second week): muscular and skeletal toxicity
- new dose-limiting factor under L-carnitine prophylaxis ([1]; 24 h every other week infusion study): non-muscular
- electron microscopy of muscle, most important change ([1]; biopsied patients): disappearance of thick filaments
- dose from which muscle cramps occur (mild cases) ([1]; every 2 weeks): ≥ 3200 mcg/m2
- onset of myotoxicity, number of infusions, median ([1]; in vivo): 4 infusions
- relationship of myotoxicity to exposure ([1]; in vivo): related to prolonged exposure rather than high exposure or concentrations
- reversible increases in creatin-kinase (CK), grade reached ([1]; more severe cases): ≤ 3 grade
- cytotoxic activity [9]: dose-dependent cytotoxic activity
- ornithine decarboxylase activity (ornithine decarboxylase): decreased ornithine decarboxylase activity
- growth inhibition (MDA-MB231): 17%
- growth inhibition (MCF-7): 47%
- spermidine and spermine in treated cells (spermidine and spermine): significant increase
- cell cycle perturbations (cell cycle): did not induce any apparent cell cycle pertubations
- activity against implanted P388 leukaemia (P388 leukaemia): active
- optimal dose (P388 leukaemia): 160 micro/kg
- activity against implanted B16 melanoma (B16 melanoma): active
- optimal dose (B16 melanoma): 160 micro/kg
- activity in SC implanted lewis lung carcinomas (lewis lung carcinomas): active
- growth of tumour cell lines ([10]; continuous exposure to low concentrations, non-Hodgkin's lymphoma, melanoma, breast, ovarian, non-small cell lung cancers): inhibited the growth
- concentration at which cell lines were sensitive ([10]; continuous exposure): >= 0.001 micromol/L
- cytotoxic activity (CT-1): dose-dependent cytotoxic activity
- cytotoxic activity (CT-2): dose-dependent cytotoxic activity
- relative sensitivity among CT-1, CT-2, HT-29 (CT-2; most proliferative line): most sensitive
- remissions (human cancer xenografts; 2.1 mg/kg): near complete remissions in some animals
- treated/control (T/C) tumour ratio (human cancer xenografts; 2.1 mg/kg): 9%
- maximum tolerated dose (human cancer xenografts; mice): 2.1 mg/kg
